{"source": "patent US4061741A", "about": "“Physiological substances for intensifying the pharmacological effect of drugs” (Firma Servomed Arzei GmbH & Co. Pharma KG, priority 1974, dated 1977)", "key": {"guinea pigs [1]": {"system": "guinea pigs", "test": "antitussive efficacy, Turner cough test, citric acid aerosol, oral (Example 2, Table II)", "format": "in vivo, guinea pig", "details": "for % cough inhibition: 30 minutes after oral application; for ED50: calculated according to the Gaussian Integral from the values of Table II, 30 minutes; for ED50 / antitussive efficacy (in words): oral; for antitussive efficacy (in words): in the dosages tested, guinea pigs", "description": "The antitussive efficacy of laevopropoxyphene-HCl and laevopropoxyphene orotate was compared on guinea pigs, using the Turner cough test.\n% cough inhibition 30 minutes after oral application.\n70 guinea pigs, 250 g; 7.5% citric acid aerosol for 10\nminutes in the respired air.\nAccording to the Gaussian Integral, from the values shown in the Table, the ED50 can be calculated for: L-propoxyphene-HCl as being greater than 200 mg/kg of animal, 1-propoxyphene orotate 79 ± 8 mg/kg of animal."}, "guinea pigs [2]": {"system": "guinea pigs", "test": "antitussive action, Turner cough test, citric acid aerosol, intravenous (Example 3, Table III)", "format": "in vivo, guinea pig", "description": "As with Example 2, the two substances laevopropoxyphene-HCl and laevopropoxyphene orotate were tested and compared with respect to their antitussive action. This time, however, intravenous applications were adopted.\n% cough inhibition; the figures in brackets represent mg\npropoxyphene-HCl in the 1-propoxyphene orotate.\n320 guinea pigs (350 g); intravenous application. 7.5%"}, "guinea pigs [3]": {"system": "guinea pigs", "test": "antitussive efficacy, Turner cough test, citric acid aerosol, oral (Example 4, Table IV)", "format": "in vivo", "details": "guinea pig, calculated with respect to 1-propoxyphene-HCl", "description": "The antitussive efficacy of laevopropoxyphene-HCl, laevopropoxyphene orotate, laevopropoxyphene orotate + choline orotate (in the molar ratio 1:1) and of laevopropoxyphene-HCl + choline orotate (in the molar ratio of 1:2) was tested and compared after oral application on guinea pigs using the Turner cough test.\nED50 in mg/kg of guinea pig. Values calculated with respect\n280 guinea pigs (350 g); oral application.\n7.5% citric acid aerosol."}, "CFI mice": {"system": "CFI mice", "test": "analgesic efficacy, writhing test, 60 minutes after oral application (Examples 5 to 8, Tables V to VIII)", "format": "in vivo, mouse (CFI)", "details": "for ED50: Mus musculus, 1 h, 60 mins.", "description": "The analgesic efficacy of sodium salicylate, sodium salicylate + choline orotate in the molar ratio of 1:1 and sodium salicylate + choline orotate in the molar ratio of 1:2 was compared in the writhing test on mice and the ED50 determined after 1 hour.\nAs in Example 5, the ED50 of metamizol and metamizol + choline orotate in the molar ratio of 1:2 was determined after one hour by the writhing test.\nThe analgesic effects of codeine phosphate and codeine phosphate + choline orotate (molar ratio 1:1) are compared in the writhing test on mice."}, "blood proteins": {"system": "blood proteins", "test": "drug not bonded to serum protein, ultrafiltration of human serum with and without orotic acid", "format": "in vitro ADME", "details": "in the presence of orotic acid", "description": "1 ml of this serum is then ultrafiltered at the same temperature, accompanied by agitation. (Filter permeability up to a molecular weight of approx. 10,000). The radioactivity contained in this ml is measured. The measured value, found […], indicates the percentage of drug which is not bonded to protein. The same test is repeated but in the presence of non-radioactively marked orotic acid in a molar ratio to the marked drug of for example 1:1 or 1:2. The percentage of free drug is calculated similarly as described above. If the second measured value is higher than the first, then this is a measure of improved availability of the drug. This increased availability is confirmed in experiments with animals."}, "NMRI mice": {"system": "NMRI mice", "test": "analgesic efficacy, writhing syndrome, oral (Example 1, Table I)", "format": "in vivo, mouse (NMRI, female)", "description": "Dextropropoxyphene-HCl, dextropropolyphenorotate and dextropropoxyphene orotate + orotic acid (in the molar ratio 1:1) were tested on mice to determine their analgesic efficacy after oral administration following the \"writhing\" syndrome. The ED50 was determined after 15 minutes, 30 minutes, 60 minutes and 180 minutes.\nED50 in […] of mouse (calculated with respect to the\ndextropropoxyphene-HCl);\noral application, writhing syndrome, 800 NMRI mice, […]"}}, "note": "Entries after “also recorded” stand apart in the source; their conditions may differ. Counter-ions that a name gives are not always drawn.", "data": [{"smiles": "CCC(=O)O[C@@](Cc1ccccc1)(c1ccccc1)[C@@H](C)CN(C)C", "note": "[Laevopropoxyphene orotate]", "values": [{"measurement": "% cough inhibition", "setting": "guinea pigs [1]; 25 mg/kg", "value": 6, "unit": "%"}, {"measurement": "% cough inhibition", "setting": "guinea pigs [1]; 50 mg/kg", "value": 31, "unit": "%"}, {"measurement": "% cough inhibition", "setting": "guinea pigs [1]; 75 mg/kg", "value": 47, "unit": "%"}, {"measurement": "% cough inhibition", "setting": "guinea pigs [1]; 100 mg/kg", "value": 56, "unit": "%"}, {"measurement": "ED50", "setting": "guinea pigs [1]; listed as 1-propoxyphene orotate", "value": "79 ± 8 mg/kg of animal"}, {"measurement": "antitussive efficacy (in words)", "setting": "guinea pigs [1]", "value": "outstanding antitussive efficacy"}, {"measurement": "% cough inhibition", "setting": "guinea pigs [2]; 1 (0.758) mg/kg, 5 min., bracket = mg propoxyphene-HCl", "value": 17.5, "unit": "%"}, {"measurement": "% cough inhibition", "setting": "guinea pigs [2]; 1 (0.758) mg/kg, 10 min.", "value": 24, "unit": "%"}, {"measurement": "% cough inhibition", "setting": "guinea pigs [2]; 1 (0.758) mg/kg, 15 min.", "value": 30, "unit": "%"}, {"measurement": "% cough inhibition", "setting": "guinea pigs [2]; 1 (0.758) mg/kg, 20 min.", "value": 23, "unit": "%"}, {"measurement": "% cough inhibition", "setting": "guinea pigs [2]; 3 (2.27) mg/kg, 5 min.", "value": 31.0, "unit": "%"}, {"measurement": "% cough inhibition", "setting": "guinea pigs [2]; 3 (2.27) mg/kg, 10 min.", "value": 30, "unit": "%"}, {"measurement": "% cough inhibition", "setting": "guinea pigs [2]; 3 (2.27) mg/kg, 15 min.", "value": 36, "unit": "%"}, {"measurement": "% cough inhibition", "setting": "guinea pigs [2]; 3 (2.27) mg/kg, 20 min.", "value": 47, "unit": "%"}, {"measurement": "% cough inhibition", "setting": "guinea pigs [2]; 5 (3.79) mg/kg, 5 min.", "value": 40.5, "unit": "%"}, {"measurement": "% cough inhibition", "setting": "guinea pigs [2]; 5 (3.79) mg/kg, 10 min.", "value": 48, "unit": "%"}, {"measurement": "% cough inhibition", "setting": "guinea pigs [2]; 5 (3.79) mg/kg, 15 min.", "value": 53, "unit": "%"}, {"measurement": "% cough inhibition", "setting": "guinea pigs [2]; 5 (3.79) mg/kg, 20 min.", "value": 59, "unit": "%"}, {"measurement": "% cough inhibition", "setting": "guinea pigs [2]; 7.5 (5.69) mg/kg, 5 min.", "value": 52.0, "unit": "%"}, {"measurement": "% cough inhibition", "setting": "guinea pigs [2]; 7.5 (5.69) mg/kg, 10 min.", "value": 59, "unit": "%"}, {"measurement": "% cough inhibition", "setting": "guinea pigs [2]; 7.5 (5.69) mg/kg, 15 min.", "value": 63, "unit": "%"}, {"measurement": "% cough inhibition", "setting": "guinea pigs [2]; 7.5 (5.69) mg/kg, 20 min.", "value": 62, "unit": "%"}, {"measurement": "antitussive efficacy (in words)", "setting": "guinea pigs [2]; guinea pigs", "value": "superior efficacy"}, {"measurement": "ED50", "setting": "guinea pigs [3]; 1 hr., listed as Laevopropoxyphene crotate, 60 min", "value": 103, "unit": "mg/kg"}, {"measurement": "ED50", "setting": "guinea pigs [3]; 3 hr., listed as Laevopropoxyphene crotate, 180 min", "value": 68, "unit": "mg/kg"}]}, {"smiles": "CCCCC1C(=O)N(c2ccccc2)N(c2ccccc2)C1=O", "note": "[Phenyl butazone]", "values": [{"measurement": "ED50", "setting": "CFI mice; oral, writhing syndrome, CFI mice, female, 20 to 22 g, Table VIII", "value": "130 ± 45", "unit": "mg/kg"}, {"measurement": "analgesia in animal experiments (in words)", "setting": "CFI mice; in the presence of orotic acid", "value": "no reinforced analgesia; also recorded: no reinforced pharmacological action"}, {"measurement": "amount of drug in the ultrafiltrate (in words)", "setting": "blood proteins", "value": "not found in increased quantity in the ultrafiltrate; also recorded: no more drug is found"}]}, {"smiles": "O=C([O-])c1ccccc1O.[Na+]", "note": "[Sodium salicylate]", "values": [{"measurement": "ED50", "setting": "CFI mice; oral, writhing test, CFI mice (18 - 20 g), Table V", "value": 580, "unit": "mg/kg"}]}, {"smiles": "CCC(=O)O[C@@](Cc1ccccc1)(c1ccccc1)[C@@H](C)CN(C)C", "note": "[Laevopropoxyphene-HCl]", "values": [{"measurement": "% cough inhibition", "setting": "guinea pigs [1]; 25 mg/kg", "value": 0, "unit": "%"}, {"measurement": "% cough inhibition", "setting": "guinea pigs [1]; 50 mg/kg", "value": 8, "unit": "%"}, {"measurement": "% cough inhibition", "setting": "guinea pigs [1]; 75 mg/kg", "value": 0, "unit": "%"}, {"measurement": "% cough inhibition", "setting": "guinea pigs [1]; 100 mg/kg", "value": 11, "unit": "%"}, {"measurement": "% cough inhibition", "setting": "guinea pigs [1]; 150 mg/kg", "value": 0, "unit": "%"}, {"measurement": "% cough inhibition", "setting": "guinea pigs [1]; 200 mg/kg", "value": 9, "unit": "%"}, {"measurement": "ED50", "setting": "guinea pigs [1]; listed as L-propoxyphene-HCl", "value": "greater than 200 mg/kg of animal"}, {"measurement": "antitussive efficacy (in words)", "setting": "guinea pigs [1]", "value": "no antitussive efficacy"}, {"measurement": "% cough inhibition", "setting": "guinea pigs [2]; 2 mg/kg, 5 min.", "value": 11, "unit": "%"}, {"measurement": "% cough inhibition", "setting": "guinea pigs [2]; 2 mg/kg, 10 min.", "value": 0, "unit": "%"}, {"measurement": "% cough inhibition", "setting": "guinea pigs [2]; 2 mg/kg, 15 min.", "value": 0, "unit": "%"}, {"measurement": "% cough inhibition", "setting": "guinea pigs [2]; 5 mg/kg, 5 min.", "value": 24, "unit": "%"}, {"measurement": "% cough inhibition", "setting": "guinea pigs [2]; 5 mg/kg, 10 min.", "value": 0, "unit": "%"}, {"measurement": "% cough inhibition", "setting": "guinea pigs [2]; 5 mg/kg, 15 min.", "value": 0, "unit": "%"}, {"measurement": "toxicity remark in the cough inhibition table", "setting": "guinea pigs [2]; 7.5 mg/kg", "value": "subtoxic"}, {"measurement": "ED50", "setting": "guinea pigs [3]; 1 hr., listed as Laevorpopoxyphene-HCl, 60 min", "value": 250, "unit": "mg/kg"}, {"measurement": "ED50", "setting": "guinea pigs [3]; 3 hr., listed as Laevorpopoxyphene-HCl, 180 min", "value": 195, "unit": "mg/kg"}]}, {"smiles": "CCC(=O)O[C@](Cc1ccccc1)(c1ccccc1)[C@H](C)CN(C)C", "note": "[Dextropropoxyphene orotate]", "values": [{"measurement": "analgesic efficacy (in words)", "setting": "NMRI mice", "value": "substantially more intensely effective as an analgesic than dextropropoxyphene-HCl by itself"}]}, {"smiles": "COc1ccc2c3c1O[C@H]1[C@@H](O)C=C[C@H]4[C@@H](C2)N(C)CC[C@@]341", "note": "[Codeine phosphate]", "values": [{"measurement": "ED50", "setting": "CFI mice; oral, writhing syndrome, CFI mice, female, 20 to 22 g, Table VII", "value": 82, "unit": "mg/kg"}]}, {"smiles": "Cc1c(N(C)CS(=O)(=O)O)c(=O)n(-c2ccccc2)n1C", "note": "[Metamizol]", "values": [{"measurement": "ED50", "setting": "CFI mice; oral, writhing test, CFI mice (18 to 20 g), Table VI", "value": 380, "unit": "mg/kg"}, {"measurement": "analgesic efficacy on addition of an orotic acid salt (in words)", "setting": "CFI mice; metamizol, writhing test, mice, oral", "value": "reinforcement of the analgesic efficacy"}]}]}
